Results as given in patent publication US20150031872A1, “METHOD FOR SCREENING ANTICANCER DRUGS, AND ANTICANCER DRUG THAT INDUCES CELL DEATH AND USES SUBSTANCE THAT INCREASES GRANZYME M ACTIVITY AS ACTIVE INGREDIENT” (LSIP, LLC, priority 2012, published 2015).
Peptide text beside a SMILES is read from it. * marks the point of attachment. CH2Cl = ClC*

What was measured:
U937 cells [1] = assay: Cell growth / viability, Cell Counting Kit 8 (WST-8); type: cell-based, human; settings: AraC 1, 5, 10 and 50 μm, 24 hours, FIG. 2A, p<0.01
Protocol: (§1) Using U937 cells and HL60 cells, which are human leukemia cells, and Colo201, which are human colon cancer cells (all purchased from cell bank), 3×10^3 of each cell were seeded in 96 well plates, and then cultured with 100 μl of RPMI cell medium (containing 10% fetal bovine serum (FBS), 2 mM L-glutamine, 100 units/ml penicillin, 100 μg/ml streptomycin, 250 ng/ml amphoterin B) per each well. At this time, AraC (cylocide) being used in the treatment of acute myelocytic leukemia by conventional pathology was added to the culture medium at the respective concentrations of 1, 5, 10 and 50 μm, and cultured under the conditions of 37° C. and 5% CO2 for 24 hours. Subsequently, 10 μl of WST-8 solution was placed per 1 well, and cultured at 37° C. for 4 hours.
(§2) The growth of cells was measured using a Cell Counting Kit 8 (Dojindo). This method is a measurement method establishing the dehydrogenase activity in viable cells as an index, and performs measurement of viable cell count based on WST-8 (2-(2-methoxy-4-nitrophenyl)-3-(4-nitrophenyl)-5-(2,4-disulfophenyl)-2H-tetrazolium, monosodium salt), which is a tetrazolium salt, being reduced to form formazan. More specifically, using a spectrophotometer Multiscan JX (Thermo Labsystems, Waltham, Mass.), the absorbance at 450 nm was measured, and the absorbance at 690 nm was used as the reference. The vertical axis in the graph of FIG. 2A represents the extent of cell viability by relative value.

Colo201 = assay: as above; type: cell-based, human; settings: AraC 1, 5, 10 and 50 μm, 24 hours, FIG. 2A
Protocol: as §1, §2

HL60 cells [2] = assay: as above; type: cell-based, human; settings: AraC 1, 5, 10 and 50 μm, 24 hours, FIG. 2A, p<0.01
Protocol: as §1, §2

[3] = tested on: nucleophosmin (NPM) in U937; assay: Western blot of nucleophosmin (NPM) fragments; type: cell-based, human
From the text: (§3) By the same method as FIG. 2C, protein groups extracted from the respective cells of U937, HL60 and Colo201 were molecular weight fractionated by way of electrophoresis of a conventional method, and the behavior of nucleophosmin (NPM), which is a cell survival factor (anti-apoptotic factor), was further investigated by the western blot method of a conventional method. It should be noted that monoclonal anti-GB23 (nucleophosmin/NPM) (catalog number B0556), which is an anti-NPM antibody, was purchased from Sigma-Aldrich (Saint Louis, Mo., USA).
NPM fragments were recovered by the immunoprecipitation method, and the N-terminal amino acids at the cleavage site of NPM were analyzed to carry out identification of the protease participating in the cleavage of NPM. It should be noted that “LC” in FIG. 3B is a light chain of the antibody used in immunoprecipitation.

granzyme M in HL60 cells [4] = assay: Western blot, expression of granzyme M; type: cell-based, human; settings: 5 μM AraC, FIG. 6
Protocol: (§4) Using U937 cells, Colo201 cells (negative control) and KHYG-1 cells (positive control), which are human NK cells, 5 μM of AraC was added to the culture medium, and culturing was carried out. Immediately after culturing initiation (0 h), after 1 hour, after 3 hours and after 5 hours, cells were recovered from the cell medium, and protein groups were extracted from the cells. The amount of protein group was measured, and a certain amount of protein group was molecular weight fractionated by way of electrophoresis of a conventional method.
(§5) Except for the point of using HL60 cells and KHYG-1 cells (positive control section), the expression of granzyme M and perforin was examined at the same conditions as Test Example 3.

granzyme M in U937 cells [5] = target: T1, granzyme M in U937 cells (Homo sapiens, UniProt P51124); assay: Granzyme M activity in extracted protein group (substrate, OD 405 nm); type: cell-based; settings: 5 μM AraC, 0 h, 3, 5 and 7 hours, FIG. 7
T1 construct: endogenous in cells; host or cells: U937, HL60
T1 sequence (P51124 26-257): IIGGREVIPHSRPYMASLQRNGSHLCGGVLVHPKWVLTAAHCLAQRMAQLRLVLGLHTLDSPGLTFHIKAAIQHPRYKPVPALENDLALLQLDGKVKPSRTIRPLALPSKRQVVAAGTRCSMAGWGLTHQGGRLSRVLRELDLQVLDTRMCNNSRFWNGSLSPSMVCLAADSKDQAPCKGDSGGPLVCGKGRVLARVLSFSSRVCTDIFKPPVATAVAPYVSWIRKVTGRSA
Protocol: (§6) At the same conditions (5 μM AraC) as Test Example 1, U937 cells, HL60 cells and KHYG-1 cells (positive control section) were cultured, cells were recovered from the culture medium immediately after culturing initiation (0 h), after 3 hours, after 5 hours and after 7 hours, and the protein groups were extracted from the cells.
(§7) To a measurement buffer (100 mM HEPES, 50 mM CaCl2, pH 7.4), 30 μg of protein group was introduced, and after adding substrate in an amount for a concentration of 200 μM, was incubated at 37° C. for 1 hour, and the absorbance at OD 405 nm was measured. It should be noted that the substrate was one synthesized by referencing Sami Mahrus, Walter Kisiel, and Charles S. Craik, Granzyme M is a regulatory protease that inactivates proteinase inhibitor 9, an endogenous inhibitor of granzyme B, J. Biol. Chem., 279, pp. 54275-54282, 2004. The vertical axis in FIG. 7 is an activity relative value for granzyme M calculated based on the absorbance.
Next, using protein groups arrived at by administering serine protease inhibitor (50 μM TPCK) to the culture medium, culturing U937 cells under the same conditions for 7 hours, and recovering, the absorbance was measured in the same way as above. The vertical axis in FIG. 3 is the activity relative value for granzyme M calculated based on the absorbance.

perforin in U937 cells = assay: Western blot, expression of perforin; type: cell-based, human; settings: 5 μM AraC, FIG. 5
Protocol: Using U937 cells, Colo201 cells (negative control) and KHYG-1 cells (positive control), which are human NK cells, 5 μM of AraC was added to the culture medium, and culturing was carried out. Immediately after culturing initiation (0 h), after 1 hour, after 3 hours and after 5 hours, cells were recovered from the cell medium, and protein groups were extracted from the cells. The amount of protein group was measured, and a certain amount of protein group was molecular weight fractionated by way of electrophoresis of a conventional method. The expression of perforin was detected by way of western blot of a conventional method. […] It should be noted that Mouse Anti-Human Perforin, Monoclonal Antibody (catalog number: 3465-6-250) by Mabtech was used as the perforin antibody.

perforin in HL60 cells = assay: Western blot, expression of perforin; type: cell-based, human; settings: 5 μM AraC, FIG. 6
Protocol: as §4, §5

[6] = tested on: PARP and caspase-3 in U937 cells; assay: Expression of apoptosis associated proteins after AraC; type: cell-based, human; settings: 5 μM AraC, 0 h, 3 hours, 6 hours, FIG. 2C
Protocol: Immediately after culturing start (0 h) under the administration of 5 μM of AraC, after 3 hours and after 6 hours, the expression of apoptosis associated proteins of U937 cells was measured.

granzyme M in HL60 cells [7] = target: T2, granzyme M in HL60 cells (Homo sapiens, UniProt P51124); assay: Granzyme M activity in extracted protein group (substrate, OD 405 nm); type: cell-based; settings: 5 μM AraC, 0 h, 3, 5 and 7 hours, FIG. 7
T2 construct: endogenous in cells; host or cells: U937, HL60
T2 sequence (P51124 26-257): T1 sequence (P51124 26-257)
Protocol: as §6, §7

[8] = tested on: nucleophosmin (NPM) in HL60; assay: Western blot of nucleophosmin (NPM) fragments; type: cell-based, human; settings: after AraC administration, FIG. 3A
From the text: as §3

[9] = tested on: nucleophosmin (NPM) in Colo201; assay: Western blot of nucleophosmin (NPM) fragments; type: cell-based, human; settings: after AraC administration, FIG. 3A
From the text: as §3

granzyme M in U937 cells [10] = assay: Western blot, expression of granzyme M; type: cell-based, human; settings: 5 μM AraC, 0 h, 1, 3 and 5 hours, FIG. 4
Protocol: as §4
By way of western blot of a conventional method, the expression of granzyme M was detected. […] The expression of granzyme M in U937 cells, which are cancer cells, is a novel discovery that had not been known conventionally. […] It should be noted that GZMM Antibody (catalog number: AP6792c) by Abgent was used as the granzyme M antibody.

granzyme M in Hela cells = target: T3, granzyme M in Hela cells (Homo sapiens, UniProt P51124); assay: Granzyme M activity in extracted protein group (substrate, OD 405 nm); type: cell-based; settings: CDDP 50 μM, 24 hours culture, incubation 10 min, 8 hr (P<0.05), 21 hr (P<0.01) vs. control, FIG. 11
T3 construct: endogenous in cells; host or cells: Hela
T3 sequence (P51124 26-257): T1 sequence (P51124 26-257)
Protocol: as §7
Using Hela cells, which are human solid carcinoma cells, the action causing granzyme M activity of CDDP 50 μM conventionally used as a curative drug for solid carcinoma was investigated by culturing Hela cells for 24 hours at the same conditions as Test Example 5. The vertical axis in FIG. 11 is the activity relative value for granzyme M calculated based on the absorbance, and on the horizontal axis are test groups having incubation times of “10 min”, “8 hr” (8 hours) and “21 hr” (21 hours), in which “control” is the substrate without CDDP, and “CDDP” is the substrate and CDDP addition.

HL60 cells [11] = assay: Viable cell count by tryptan blue method; type: cell-based, human; settings: inhibitor alone 0.75 mg/ml, 14 hours
Protocol: (§8) Ac-KVPL-CMK, which is an inhibitor specific to granzyme M, was added to the culture medium (5 μM AraC) in an amount making a final concentration of 0.75 mg/ml, and then pre-incubated. To 48 well plates, 5×10^5 of each cell (U937 cells and HL60 cells) were seeded, and culturing was initiated with 200 μl of culture medium per well. Fourteen hours after culturing initiation, the number of viable cells was measured by the tryptan blue method (mixing a cell suspension and tryptan blue solution in 1:1, placing in a hemocytometer, and counting the number of cells using an optical microscope). It should be noted that Ac-KVPL-CMK was synthesized based on the tertiary structure of granzyme M (L. Wu et. al., Structural basis for proteolytic specificity of the human apoptosis-inducing granzyme M, J. Immunol., 2009; 183: 421-429).

U937 cells [12] = assay: Viable cell count by tryptan blue method; type: cell-based, human; settings: inhibitor alone 0.75 mg/ml, 14 hours
Protocol: as §8, with “Ac-KVPL-CMK, which is an inhibitor specific to granzyme M, was added to the culture medium (5 μM AraC) in an amount making a final concentration of 0.75 mg/ml, and then pre-incubated.” left out

Nc1ccn([C@@H]2O[C@H](CO)[C@@H](O)[C@@H]2O)c(=O)n1 [AraC]
cell death (cell viability, relative value) (U937 cells [1]): concentration dependently induced
cell death (cell viability, relative value) (Colo201): not induced
cell death (cell viability, relative value) (HL60 cells [2]): concentration dependently induced
cleavage site of NPM fragment (N-terminal amino acid sequence AAED) ([3]; NPM fragments recovered by immunoprecipitation after AraC administration, FIG. 3B): cleaved by Leu-158 of NPM
fragments of NPM ([3]; U937, after AraC administration, FIG. 3A): detected along with the elapse of time
expression level of granzyme M (granzyme M in HL60 cells [4]): tendency of the expression level being exacerbated depending on the time elapsed
activity of granzyme M (relative value) (granzyme M in U937 cells [5]): increases along with the elapse of time
expression of perforin (perforin in U937 cells): not induced
expression of perforin (perforin in HL60 cells): not recognized
PARP decomposition [6]: decomposed along with the elapse of time
caspase-3 decomposition [6]: decomposed along with the elapse of time
activity of granzyme M (relative value) (granzyme M in HL60 cells [7]): increases along with the elapse of time
fragments of NPM [8]: detected along with the elapse of time
fragments of NPM [9]: not detected
expression level of granzyme M (granzyme M in U937 cells [10]): unrelated to the elapse of AraC administration time

[NH2][Pt]([NH2])([Cl])[Cl] [CDDP, cisplatin]
activity of granzyme M (relative value) (granzyme M in Hela cells): increased with the elapse of time

CC(=O)N[C@@H](CCCCN)C(=O)N[C@H](C(=O)N1CCC[C@H]1C(=O)N[C@@H](CC(C)C)C(=O)CCl)C(C)C [granzyme M-specific inhibitor, Ac-KVPL-CMK] (Ac-KVPL-CH2Cl)
viable cell count, sole administration vs. control group (HL60 cells [11]): significant difference in viable cell count was not confirmed
viable cell count, sole administration vs. control group (U937 cells [12]): significant difference in viable cell count was not confirmed
